The data set concerns D. discoideum pChR2 strain. In words: Growth and metabolic activity monitoring (respiration activity, oxygen transfer rate). The class given is cell-based, Dictyostelium discoideum. Conditions: pChR2 strain supplemented with 1 mM hexanoic acid. The method, then: Growth and metabolic activity monitoring. For determining the respiration activity, the D. discoideum pChR2, pChR5 and pChR7 strains were grown at an initial density of 1×10^6 cells/mL of HL5 medium supplemented with 1% [w/v] glucose and 20 μg/mL G418 in the presence or absence of 20 μg/mL doxycycline and 1 mM hexanoic acid as indicated. The respiration activity was measured by using the Kuhner TOM (transfer-rate online measurement) system equipped with oxygen partial pressure sensors and infrared sensors to calculate the oxygen transfer rate (OTR) and the carbon dioxide transfer rate (CTR). The cultures were grown in 250 mL TOM flasks for 144 h at 140 rpm and 22° C. without interruption to allow a constant OTR assessment. A filling volume of 52 mL was calculated in order to allow a maximum OTR of 8.5 mmol/L/h43, similar to culture conditions of previous experiments using 25 mL per 100 mL Erlenmeyer shake flasks.

For the molecule `CCCCCC(=O)O` [hexanoic acid], the effect on growth result is “initial growth inhibitory effect” and the “effect on maximum OTR” value is “did not change the maximum OTR”. The “time at which the oxygen transfer rate (OTR) peaked” value (77 h without supplementation) amounted to 92 h.

The values above are taken from patent publication US12686877B2, “Method for producing olivetolic acid in an amoebozoa host species” (LEIBNIZ-INSTITUT FÜR NATURSTOFF-FORSCHUNG UND …, priority 2020, dated 2026).
